Results on ten compounds are retold here after paper PMC10291552, “Computational Design, Synthesis, and Biological Evaluation of Diimidazole Analogues Endowed with Dual PCSK9/HMG-CoAR-Inhibiting Activity” (Journal of Medicinal Chemistry, 2023).

The target of data set [1] is T1, PCSK9/LDLR (Homo sapiens, UniProt Q8NBP7).
T1 construct: purchased CircuLex (CycLex Co., Nagano, Japan)
As to the kind of experiment: In vitro PCSK9-LDLR binding assay (CircuLex/CycLex kit). To be noted: for IC50: mean ± SD, three independent experiments, Hill slope fixed at −1. As for the experimental part: Diimidazole analogues (0.1–1 × 10^6 nM) were tested using the in vitro PCSK9-LDLR binding assay (CycLex Co., Nagano, Japan) following the manufacturer’s instructions and with the conditions already optimized.[15] Briefly, the plates were pre-coated with a recombinant LDLR-AB domain containing the binding site of PCSK9. Before starting the assay, the tested analogues and/or the vehicle in DMSO were sonicated at 37 °C, diluted in the reaction buffer, and added in microcentrifuge tubes. Afterward, the reaction mixtures were added in each well of the microplate, and the reaction was started by adding His-tagged PCSK9 solution (3 μL). The microplate was allowed to incubate for 2 h at room-temperature (RT) shaking at 300 rpm on an orbital microplate shaker. Subsequently, the wells were washed 4 times with the wash buffer. After the last wash, the biotinylated anti-His-tag monoclonal antibody (100 μL) was added and incubated at RT for 1 h shaking at 300 rpm. After incubation, the wells were washed 4 times with wash buffer. After the last wash, 100 μL of HRP-conjugated streptavidin were added, and the plate was incubated for 20 min at RT. After incubation, the wells were washed 4 times with wash buffer. Finally, the substrate reagent (tetra-methylbenzidine) was added, and the plate was incubated for 10 min at RT shaking at ca. 300 rpm. The reaction was stopped with 2.0 M sulfuric acid, and the absorbance at 450 nm was measured using a Synergy H1 fluorescent plate reader (Winooski, VT, USA).
All the data sets were checked for normal distribution by D’Agostino and Pearson tests. Since they are all normally disturbed with p values of […], we proceeded with statistical analyses of one-way ANOVA followed by Tukey’s post hoc test using Graphpad Prism 9 (San Diego, CA, USA). Values were reported as means ± s.d.; p values of <0.05 were considered to be significant. The IC50 values of samples inhibiting PCSK9-LDLR binding were evaluated by using the log(inhibitor) vs response model of GraphPad Prism 9 (San Diego, CA, USA). This model assumes that the dose–response curves has a standard slope, equal to a Hill slope (or slope factor) of −1.0. This is the slope expected when a ligand binds to a receptor following the law of mass action and is the slope expected of a dose–response curve when the second messenger created by receptor stimulation binds to its receptor by the law of mass action (https://graphpad.com/guides/prism/latest/curvefitting/reg_dr_inhibit.htm).

Data set [2] has as its target T2, HMG-CoAR (catalytic domain) (Homo sapiens, UniProt P04035).
T2 construct: and finally, HMG-CoAR (catalytic domain) (2 μL); purchased Sigma Aldrich
T2 sequence (P04035 426-888 limits assumed): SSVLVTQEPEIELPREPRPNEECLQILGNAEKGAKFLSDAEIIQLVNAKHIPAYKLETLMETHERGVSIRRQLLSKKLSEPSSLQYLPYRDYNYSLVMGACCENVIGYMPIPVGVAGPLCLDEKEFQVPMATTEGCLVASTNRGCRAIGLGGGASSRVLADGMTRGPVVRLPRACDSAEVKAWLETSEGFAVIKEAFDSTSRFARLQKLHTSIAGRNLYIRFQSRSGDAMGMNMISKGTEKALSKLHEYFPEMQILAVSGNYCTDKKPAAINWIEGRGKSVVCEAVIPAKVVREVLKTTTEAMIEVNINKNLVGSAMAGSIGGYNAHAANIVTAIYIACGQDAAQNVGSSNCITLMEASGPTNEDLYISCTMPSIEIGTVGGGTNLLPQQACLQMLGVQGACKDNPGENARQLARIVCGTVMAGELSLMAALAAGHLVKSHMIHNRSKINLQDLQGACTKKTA
As to the kind of experiment: HMG-CoAR activity assay (Sigma kit, NADPH oxidation at 340 nm). Format: biochemical. Particulars: 10–500 μM tested, 37 °C. As for the experimental part:
The experiments were carried out following the manufacturer’s instructions and optimized protocol.[43] The assay buffer, NADPH, substrate solution, and HMG-CoAR were provided in the HMG-CoAR Assay Kit (Sigma Aldrich SRL, Milan, Italy). The experiments were carried out following the manufacturer’s instructions at 37 °C. In particular, each reaction (200 μL) was prepared adding the reagents in the following order: 1× assay buffer, a 10–500 μM dose of sonicated Dim analogues or vehicle (C), NADPH (4 μL), the substrate solution (12 μL), and finally, HMG-CoAR (catalytic domain) (2 μL). Subsequently, the samples were mixed, and the absorbance at 340 nm was read by a microplate reader (Synergy H1, Winooski, VT, USA) at times of 0 and 10 min. The HMGCoAR-dependent oxidation of NADPH and the inhibition properties of the peptides were measured by absorbance reduction, which is directly proportional to enzyme activity.

A further data set can be described thus: Solubility in PBS pH 7.4. Format: physicochemical. Particulars: PBS buffer, pH 7.4, PBS, 37 °C. Here is the method:
Solubility was tested after incubation of the test item at 200 μM and 500 μM in PBS buffer pH 7.4 starting from an initial DMSO solution of Dim22 100 mM. Samples in duplicates were incubated at 37 °C for 90 min, were then centrifuged at 12500 rpm for 5 min. Supernatants were analyzed in LC/MS together with a solution of the compound in ACN.

The nature of data set [3]: Metabolic stability in human liver microsomes (with UDPGA). To be noted: for Cli: human liver microsomes 0.5 mg/mL, 5 μM, cofactors + UDPGA (Phase II stability). On the technique in general: Liver microsomes are a subcellular fraction often used to study metabolism.
Protocol: (§1) After the pre-incubation period, the reaction was started by adding the cofactor mixture (NADP, Glc6P, and Glc6P-DH in 2% sodium bicarbonate) and UDPGA. Samples (25 μL) were taken at times of 0, 10, 20, 30, 45, and 60 min and then mixed with 150 μL of ACN to stop the reaction. After centrifugation, the supernatants were analyzed by LC–MS/MS. A control sample without cofactors was included in the assay in order to check the stability of the test compounds in the matrix after 60 min. 7-Ethoxycoumarin (7-EC) and 7-hydroxycoumarin (7-OHC) were contemporarily tested as reference standards for the Phase I and Phase II reactions, respectively.
A short description of data set [4]: Metabolic stability in mouse liver microsomes (with UDPGA). Particulars: for Cli: mouse liver microsomes 0.5 mg/mL, 5 μM, cofactors + UDPGA (Phase II stability).
Protocol: as §1
In data set [5] the target is T1, PCSK9/LDLR. Particulars: cited from earlier work.
The target of data set [6] is T2, HMG-CoAR (catalytic domain). Set-up: method as in doi:10.1016/j.jff.2017.02.009. To be noted: cited from earlier work.

In brackets after ≈: the same amount, converted by molar mass. Several values for one entry are separate records, joined by “and”; a condition that tells them apart may be missing. Equal entries are not always repeated. Where two headings read alike, the source gives them in different places.

T1 sequence (Q8NBP7 153-692): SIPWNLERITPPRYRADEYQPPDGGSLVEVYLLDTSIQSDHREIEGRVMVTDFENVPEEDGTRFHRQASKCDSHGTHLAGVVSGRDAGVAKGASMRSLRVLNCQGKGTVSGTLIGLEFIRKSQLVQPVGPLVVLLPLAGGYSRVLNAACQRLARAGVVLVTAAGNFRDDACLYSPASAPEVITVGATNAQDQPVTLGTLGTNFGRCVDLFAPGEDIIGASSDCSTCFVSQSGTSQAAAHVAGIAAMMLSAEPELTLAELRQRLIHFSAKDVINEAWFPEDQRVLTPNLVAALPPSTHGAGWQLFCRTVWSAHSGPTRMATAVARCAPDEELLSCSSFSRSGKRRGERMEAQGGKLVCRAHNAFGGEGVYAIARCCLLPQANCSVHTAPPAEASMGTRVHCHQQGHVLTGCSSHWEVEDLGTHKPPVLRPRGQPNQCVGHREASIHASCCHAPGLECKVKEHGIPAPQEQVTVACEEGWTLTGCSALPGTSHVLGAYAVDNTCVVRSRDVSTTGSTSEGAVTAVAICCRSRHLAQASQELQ
T1 sequence (Q8NBP7 31-152 limits assumed): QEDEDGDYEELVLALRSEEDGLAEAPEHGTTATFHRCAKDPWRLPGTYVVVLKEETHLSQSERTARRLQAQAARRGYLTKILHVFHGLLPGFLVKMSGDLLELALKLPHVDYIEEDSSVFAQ

As usually defined, the solubility is the dissolved amount per volume that the medium holds. For the compound `CNCCCCCn1c(-c2ncc(-c3ccc4ccccc4c3)n2CC2CCCCC2)cnc1I` [Dim22, 5-(1-(Cyclohexylmethyl)-2′-iodo-5-(naphthalen-2-yl)-1H,3′H-[2,4′-biimidazol]-3′-yl)-N-methylpentan-1-amine], the values for the IC50 (at PCSK9/LDLR [1]; in data set [2]) were 1990 ± 2860 nM and 36200 ± 5980 nM, respectively. In addition, in the data set “Solubility in PBS pH 7.4”, the solubility at 90 min is around 10 µM (≈ 5.82 µg/mL). The compound also returned a solubility at 1.5 h in “Solubility in PBS pH 7.4” (90 min) of 5.8 µg/mL (≈ 9.97 µM). Further, the values for the Cli in data set [3] and in data set [4] were 51.5 μL/min/mg protein and 57.0 μL/min/mg protein, respectively. For the same compound, the clearance classification result was “medium–high” in data set [3] (human liver microsomes, classification of Table S4) and “medium–high” in data set [4] (mouse liver microsomes, classification of Table S4). Moreover, the “non-NADPH-dependent part of the observed metabolism” value in data set [3] (humans) amounted to 50%. Besides, in data set [4] (mice), the “NADPH dependence of the observed metabolism” value is given as “NADPH-dependent”.

Consider `C#Cc1ncc(-c2ncc(-c3ccc4ccccc4c3)n2CC2CCCCC2)n1CCCCCNC` [Dim23, 5-(1-(Cyclohexylmethyl)-2′-ethynyl-5-(naphthalen-2-yl)-1H,3′H-[2,4′-biimidazol]-3′-yl)-N-methylpentan-1-mine], for which, at PCSK9/LDLR [1], the IC50 turned out to be 1180 ± 1060 nM. Also, the “HMG-CoAR activity IC50” value in data set [2] was “not active”.

With `CNCCCCCn1cncc1-c1ncc(-c2ccc3ccccc3c2)n1CCCC(C)(C)C` [Dim2, 5-(1-(4,4-Dimethylpentyl)-5-(naphthalen-2-yl)-1H,3′H-[2,4′-biimidazol]-3′-yl)-N-methylpentan-1-amine], the IC50 on PCSK9/LDLR [1] was 1990 ± 1650 nM; in data set [2], 40500 ± 15200 nM. Besides, at PCSK9/LDLR [1] (ratio versus Dim16), the “PCSK9 activity, times less active than Dim16” value is on record as “about 2500”.

Regarding `CNCCCCCn1cncc1-c1nc(-c2ncc(-c3ccc(OC)cc3)n2C)cn1CCc1ccccc1` [RIm14], the “affinity with PCSK9” value on PCSK9/LDLR [5] (in words) is recorded as “low micromolar affinity”.

Take `CCOc1ccc2ccc(=O)oc2c1` [7-EC, 7-Ethoxycoumarin, reference compound]: the Cli was 46.1 μL/min/mg protein in data set [3] and 290.9 μL/min/mg protein in data set [4].

As for `O=c1ccc2ccc(O)cc2o1` [7-OHC, 7-hydroxycoumarin, reference compound], the Cli was determined as 390.0 μL/min/mg protein in data set [3] and 533.3 μL/min/mg protein in data set [4].

As for `Cn1cnc(-c2ncc(-c3nc(-c4ncc(-c5ccccc5)n4C)cn3C)n2C)c1` [MeIm], the “IC50 value (PCSK9–LDLR interaction)” value at PCSK9/LDLR [5] (in words) is on record as “low-micromolar range”.

Turning to `CNCCCCCn1cncc1-c1nc(-c2ncc(-c3ccc(OC)cc3)n2C)cn1Cc1ccccc1` [Rim13], the “affinity with PCSK9” value on PCSK9/LDLR [5] (in words) is listed as “low micromolar affinity”. The IC50 at PCSK9/LDLR [5] (read-out: PCSK9/LDLR interaction IC50) is 1600 nM and ~1000 nM.

In the case of “LILPKHSDAD [P5, peptide P5 derived from lupin proteins]”, the IC50 was 1600 nM with PCSK9/LDLR [5] (read-out: PCSK9/LDLR PPI IC50) and 147000 nM in data set [6].

Take `CNCCCCCn1cncc1-c1ncc(-c2ccc3ccccc3c2)n1CC1CCCCC1` [Dim21, 5-(1-(Cyclohexylmethyl)-5-(naphthalen-2-yl)-1H,3′H-[2,4′-biimidazol]-3’-yl)-N-methylpentan-1-amine]: the IC50 was 4500 ± 500 nM at PCSK9/LDLR [1] and 38400 ± 12700 nM in data set [2].
